# Measurements as given in ChEMBL document CHEMBL3885861, “Open TG-GATES”.
# Species on record: Rattus norvegicus
# Experiment: Open TG-GATES - Regimen: Single
# Format: toxicity, organism-based, Sprague-Dawley
# Parameters: regimen Single, gender Male, age 6 weeks
# Conditions: in vivo, po, route gavage; for AST / BUN / CRE / Ca / Cl / DBIL / GLC / IP / K / LDH / Na / PL / RALB / TBIL / TC / TG / TP / gamma-GTP / A/G / ALP / ALT: tissue Plasma; for APTT / Bas / Eos / Fbg / Hb / Ht / Lym / MCH / MCHC / MCV / Mono / Neu / PT / Plat / RBC / Ret / WBC: tissue Blood; for KIDNEY_L / KIDNEY_R / KIDNEY_TOTAL: tissue Kidney; for LIVER: tissue Liver
# [1] = 100 mg/kg, 24 h, dose level High
# [2] = 100 mg/kg, 24 h, dose level Low
# [3] = 300 mg/kg, 3 h, dose level Middle
# [4] = 300 mg/kg, 6 h, dose level Middle
compound,measurement,setting,value
O=C1CN(/N=C/c2ccc([N+](=O)[O-])o2)C(=O)N1 [NITROFURANTOIN],AST,"100 mg/kg, 9 h, dose level Low",66 IU/L
same,BUN,"100 mg/kg, 9 h, dose level Low",14.8 mg/dL
same,CRE,"100 mg/kg, 9 h, dose level Low",0.4 mg/dL
same,Ca,"100 mg/kg, 9 h, dose level Low",11.2 mg/dL
same,Cl,"100 mg/kg, 9 h, dose level Low",105 meq/L
same,DBIL,"100 mg/kg, 9 h, dose level Low",0.01 mg/dL
same,GLC,"100 mg/kg, 9 h, dose level Low",187.2 mg/dL
same,IP,"100 mg/kg, 9 h, dose level Low",7.8 mg/dL
same,K,"100 mg/kg, 9 h, dose level Low",4.8 meq/L
same,LDH,"100 mg/kg, 9 h, dose level Low",62.8 IU/L
same,Na,"100 mg/kg, 9 h, dose level Low",138.2 meq/L
same,PL,"100 mg/kg, 9 h, dose level Low",137.8 mg/dL
same,RALB,"100 mg/kg, 9 h, dose level Low",3.8 g/dL
same,TBIL,"100 mg/kg, 9 h, dose level Low",0.03 mg/dL
same,TC,"100 mg/kg, 9 h, dose level Low",77.8 mg/dL
same,TG,"100 mg/kg, 9 h, dose level Low",91.2 mg/dL
same,TP,"100 mg/kg, 9 h, dose level Low",5.6 g/dL
same,gamma-GTP,"100 mg/kg, 9 h, dose level Low",1 IU/L
same,TERMINAL_BW,[1],237.1 g
same,TERMINAL_BW,[2],213.4 g
same,APTT,[1],18.4 s
same,Bas,[1],0%
same,Eos,[1],1%
same,Fbg,[1],214.8 mg/dL
same,Hb,[1],13.5 g/dL
same,Ht,[1],38.6%
same,Lym,[1],79.6%
same,MCH,[1],22.1 pg
same,MCHC,[1],35.2%
same,MCV,[1],62.9 fL
same,Mono,[1],2.6%
same,Neu,[1],15.2%
same,PT,[1],12.3 s
same,Plat,[1],116.3 x10_4/uL
same,RBC,[1],614.4 x10_4/ul
same,Ret,[1],6.9%
same,WBC,[1],90.9 x10_2/uL
same,APTT,[2],16.1 s
same,Eos,[2],0.8%
same,Fbg,[2],227 mg/dL
same,Hb,[2],13.1 g/dL
same,Ht,[2],40%
same,Lym,[2],74.8%
same,MCH,[2],20.8 pg
same,MCHC,[2],32.7%
same,MCV,[2],63.7 fL
same,Mono,[2],10.2%
same,Neu,[2],14.2%
same,PT,[2],12 s
same,Plat,[2],129.7 x10_4/uL
same,RBC,[2],628.4 x10_4/ul
same,Ret,[2],5.8%
same,WBC,[2],76.3 x10_2/uL
same,KIDNEY_L,[1],1.1 g
same,KIDNEY_R,[1],1.1 g
same,KIDNEY_TOTAL,[1],2.1 g
same,KIDNEY_L,[2],1 g
same,KIDNEY_R,[2],1 g
same,LIVER,[1],12.4 g
same,LIVER,[2],10.4 g
same,A/G,[1],1.6
same,ALP,[1],970.4 IU/L
same,ALT,[1],39.2 IU/L
same,AST,[1],63.4 IU/L
same,BUN,[1],15.8 mg/dL
same,CRE,[1],0.4 mg/dL
same,Ca,[1],10.8 mg/dL
same,Cl,[1],102.4 meq/L
same,DBIL,[1],0.1 mg/dL
same,GLC,[1],219.8 mg/dL
same,IP,[1],7.3 mg/dL
same,K,[1],4.3 meq/L
same,LDH,[1],196.4 IU/L
same,Na,[1],139.6 meq/L
same,PL,[1],159.2 mg/dL
same,RALB,[1],3.3 g/dL
same,TBIL,[1],0.2 mg/dL
same,TC,[1],79.2 mg/dL
same,TG,[1],112.4 mg/dL
same,TP,[1],5.4 g/dL
same,gamma-GTP,[1],0.6 IU/L
same,A/G,[2],2.2
same,ALP,[2],1379.2 IU/L
same,ALT,[2],32.6 IU/L
same,AST,[2],62.6 IU/L
same,BUN,[2],15.4 mg/dL
same,Ca,[2],11.1 mg/dL
same,Cl,[2],105.4 meq/L
same,DBIL,[2],0.01 mg/dL
same,GLC,[2],194.2 mg/dL
same,IP,[2],9.1 mg/dL
same,K,[2],4.7 meq/L
same,LDH,[2],73.4 IU/L
same,Na,[2],141 meq/L
same,PL,[2],150.8 mg/dL
same,RALB,[2],3.8 g/dL
same,TBIL,[2],0.028 mg/dL
same,TC,[2],85.8 mg/dL
same,TG,[2],118.6 mg/dL
same,TP,[2],5.6 g/dL
same,gamma-GTP,[2],0 IU/L
same,TERMINAL_BW,[3],206.1 g
same,APTT,[3],16.4 s
same,Bas,[3],0%
same,Eos,[3],1%
same,Fbg,[3],227.6 mg/dL
same,Hb,[3],13.2 g/dL
same,Ht,[3],40.2%
same,Lym,[3],72.2%
same,MCH,[3],21.2 pg
same,MCHC,[3],32.9%
same,MCV,[3],64.5 fL
same,Mono,[3],5%
same,Neu,[3],21.8%
same,PT,[3],11.9 s
same,Plat,[3],123.8 x10_4/uL
same,RBC,[3],623.2 x10_4/ul
same,Ret,[3],7.6%
same,WBC,[3],84.5 x10_2/uL
same,KIDNEY_L,[3],0.9 g
same,KIDNEY_R,[3],0.9 g
same,KIDNEY_TOTAL,[3],1.8 g
same,LIVER,[3],8.5 g
same,A/G,[3],2.2
same,ALP,[3],1192.4 IU/L
same,ALT,[3],38 IU/L
same,AST,[3],65 IU/L
same,BUN,[3],12.4 mg/dL
same,CRE,[3],0.4 mg/dL
same,Ca,[3],11.5 mg/dL
same,Cl,[3],103 meq/L
same,DBIL,[3],0.004 mg/dL
same,GLC,[3],185.2 mg/dL
same,IP,[3],10.1 mg/dL
same,K,[3],4.2 meq/L
same,LDH,[3],108.2 IU/L
same,Na,[3],138.6 meq/L
same,PL,[3],131.6 mg/dL
same,RALB,[3],4 g/dL
same,TBIL,[3],0.03 mg/dL
same,TC,[3],86.4 mg/dL
same,TG,[3],37.2 mg/dL
same,TP,[3],5.8 g/dL
same,gamma-GTP,[3],1 IU/L
same,TERMINAL_BW,[4],204.8 g
same,APTT,[4],16.7 s
same,Bas,[4],0%
same,Eos,[4],1.4%
